We go through one compound from patent publication US20250275964A1, “METHODS OF INHIBITING LIVER-TYPE GLUTAMINASE, GLS2” (CORNELL UNIVERSITY, priority 2019, published 2025).

In the test the target is T1, recombinant full-length human GLS (GAC splice variant) (Homo sapiens, UniProt O94925).
T1 construct: processed forms of human GAC (residues 72 to 598); inferred from pQE80 vector and Ni-NTA/imidazole purification; made in house; host or cells: E. coli BL21(DE3)
Nature of the test: Real-time recombinant glutaminase activity assay, GLS. Type of test: biochemical. Particulars: different concentrations.

T1 sequence (O94925 72-598 isoform O94925-3): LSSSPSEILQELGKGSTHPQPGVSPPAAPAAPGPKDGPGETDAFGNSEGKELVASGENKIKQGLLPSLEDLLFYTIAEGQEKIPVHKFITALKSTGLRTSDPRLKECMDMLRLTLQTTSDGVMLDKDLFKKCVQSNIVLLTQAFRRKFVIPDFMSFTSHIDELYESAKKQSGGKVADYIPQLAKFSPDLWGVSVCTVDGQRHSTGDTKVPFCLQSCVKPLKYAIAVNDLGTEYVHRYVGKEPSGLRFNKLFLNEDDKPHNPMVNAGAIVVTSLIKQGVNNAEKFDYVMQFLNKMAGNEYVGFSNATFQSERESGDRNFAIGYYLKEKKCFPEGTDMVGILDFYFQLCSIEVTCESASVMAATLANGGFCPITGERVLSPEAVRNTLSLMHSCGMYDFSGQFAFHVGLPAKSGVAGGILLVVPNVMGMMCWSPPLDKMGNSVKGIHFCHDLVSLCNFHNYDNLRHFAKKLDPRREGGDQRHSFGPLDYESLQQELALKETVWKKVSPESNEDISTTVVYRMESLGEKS
Protocol: Real-time monitoring of glutaminase activity through NADH production was performed on a Cary Eclipse fluorescence spectrometer. The excitation and emission wavelengths were set at 340 nm and 460 nm, respectively. […] Then, 100 μl of either 100 nM GAC or 500 nM GLS2 was added to this mixture and the fluorescence emission was monitored in real time. After 30 s, 200 μl of a mixture of glutamine and K2HPO4 was added such that the final concentrations of K2HPO4 and glutamine were 100 mM and 20 mM, respectively. The initial velocity of glutamine hydrolysis was obtained from the slopes of the linear portion of the kinetic curve.

In the case of `CN(C)c1ccc(C2Nc3ccc4ccccc4c3C3=C2C(=O)CC(C)(C)C3)cc1Br` (stereo not shown) [Compound 968], the “inhibition of recombinant GLS activity” value is listed as “inhibited”.
